Here are results for three molecules from PMC7188855, “Nucleic acid recognition and antiviral activity of 1,4-substituted terphenyl compounds mimicking all faces of the HIV-1 Rev protein positively-charged α-helix” (Scientific Reports, 2020).

For test [1], the target named is RRE subdomain IIB (IIBh). The test is described as follows: Isothermal titration calorimetry with IIBh. It counts as binding, HIV-1. The settings on record: 25 °C; 10 mM sodium phosphate pH 7.4, 0.1 mM EDTA; read-out: equilibrium dissociation constant, RRE subdomain IIB (ITC). Here is the method:
(§1) These experiments were performed at 25 °C in MicroCal PEAQ-ITC or Nano-ITC microcalorimeters, and the data was subsequently analysed with MicroCal or Nanoanalyze software, respectively. All species were dissolved in aqueous solutions containing 10 mM sodium phosphate (pH 7.4 or 8.2) and 0.1 mM EDTA. For the IIBh:1a interaction the pH was 7.4, and 10 or 20 μM solutions of IIBh in the sample cell were titrated with 19 injections of 350 or 500 μM solutions of 1a. […]. […] For the DNAd:1a interaction, the pH was 8.2, and 800 or 900 μM solutions of 1a were titrated into 20 μM solutions of DNAd duplex in the sample cell with 19 injections of 2 µL. In both cases, the titration experiments were repeated three times, and the resulting association curves were fitted using a model with a single set of binding sites.
(Isothermal titration calorimetry measures the heat released or taken up as one component is titrated into another.)

Test [2] has as its system HIV-1 LTR promoter. The test is described as follows: Transfection of pLTR-luc in MT-2 cells. Conditions: Human immunodeficiency virus 1, MT2, 48 h, read-out: EC50 transfection HIV-1 LTR.
Protocol: To further assess the mechanism of antiviral action of the compounds, we checked whether they also interfered with the regulatory sequences of HTLV-1, a closely related retrovirus.
MT-2 cells were transfected with plasmids containing a luciferase reporter gene whose expression was under the control of the full length proviral HIV-1 (NL4.3-luc), the HIV-1 LTR promoter (pLTR-luc), or the HTLV-1 LTR promoter (pLTR(HTLV)-luc). After transfection, cells were treated with different compound concentrations, and activity quantification was performed 48 h later by determining luciferase activity in cell lysates as described[7],[21],[22].
For test [3], the system named is HIV-1 reverse transcription. The test is described as follows: qPCR quantification of early and late HIV-1 reverse transcripts in MT-2 cells. Conditions: MT-2 cells infected with NL4.3 for 5 hours. In kind it is cell-based. Here is the method: MT-2 cells were pre-treated with two different concentrations of terphenyl molecules 1a, 1d or 3c, selected on the basis of the observed RRE-Rev IC50 and cellular EC50 values, and infected with NL4.3 wild-type HIV-1 for 5 hours. Total genomic DNA was isolated with a QIAamp DNA blood mini kit (Qiagen) and quantified by spectrophotometry. Early and late viral DNAs were quantified by qPCR as previously described. qPCR was performed in triplicate in a StepOne Real-Time PCR system using standard cycling conditions. Serial dilutions of genomic DNA from the 8E5 cell line, which contain a single integrated copy of HIV-1[43], were used as standard curve. The CCR5 gene was used as an endogenous control.

For test [4], the target named is DNA duplex DNAd. The experiment in a line: Isothermal titration calorimetry with DNAd duplex. It counts as binding. The settings on record: 25 °C, 10 mM sodium phosphate pH 8.2, 0.1 mM EDTA, read-out: equilibrium dissociation constant, related DNA duplex (ITC). Here is the method: as §1
Test [5] concerns the target RRE subdomain IIB RNA hairpin IIBh. The experiment in a line: Fluorescence intensity binding to fluorescein-labelled IIBh hairpin. Also on record: species or system HIV-1. The settings on record: for IIB-DNA spec., Kd(IIBh)/Kd(IIBh+LTRd) / IIB-tRNA spec., Kd(IIBh)/Kd(IIBh+tRNA): low ionic strength, 10 mM sodium phosphate pH 6.6, uses Kd1. From the text:
We next determined whether the terphenyl molecules blocked the interaction between Rev34–50 and subdomain IIB by binding to the RNA and, if so, whether they recognized subdomain IIB in a manner similar to the Rev34–50 α-helix. We first evaluated subdomain IIB association by measuring changes in the fluorescence intensity of a IIBh RNA hairpin construct containing a fluorescein probe attached to unpaired loop IIB residue U23 (Fig. 1D)[21],[22]. […] However, there were significant differences among the compounds.
These experiments measured association to IIBh-23fl or TARh-8fl RNA molecules labelled with fluorescein at extrahelical loop nucleotides U23 and U8, respectively (Fig. 1D), and were carried out under two different ionic conditions in a Victor X5 plate reader, using excitation and emission wavelengths of 485 and 520 nm, respectively. We also attempted to measure association to an alternative IIBh hairpin containing 2-aminopurine instead of adenine at unpaired loop IIB residue A19[21], but all terphenyls fluoresced at the excitation wavelength of this fluorophore. IIBh-23fl or TARh-8fl (at 100 nM concentration) was equilibrated for 5 minutes after each ligand addition in a buffer containing either 10 mM sodium phosphate pH 6.6 and 0.1 mM EDTA or 10 mM HEPES pH 7.5, 200 mM KCl and 2 mM MgCl2. In addition to the TARh specificity control, the RNA and DNA specificity of the IIBh interactions was assessed by duplicating the experiments in the presence of a 10-fold molar excess (1 μM) of either tRNA^Lys or DNA duplex LTRd. The equilibrium dissociation constants Kd were determined by fitting the fluorescence intensity curves with DYNAFIT[40]. We used one-site, two independent-sites and two interacting-sites binding models for all curves, and the best model was automatically selected by model discrimination analysis, except where indicated. The final graphs were plotted with Prism. All fluorescence intensity experiments were performed at least two times for each compound and condition.

In test [6] the test system is RRE-Rev system (unspliced, single-spliced, multiple-spliced HIV-1 transcripts). The test is described as follows: RT-qPCR analysis of HIV-1 RNA splicing in MT-2 cells. In kind it is cell-based. The settings on record: 24 and 48 hours post-infection, 100 μM; not statistically significant. Here is the method:
Given that splicing takes place in the nucleus, a blockage of the RRE-Rev system should reduce the levels of unspliced or single-spliced transcripts and increase the proportion of multiple-spliced species.
MT-2 cells were infected with a NL4.3 virus for 2 hours (10 ng/10^6 cells) and treated with two different concentrations of compounds 1a, 1d or 3c for 24, 48, 72 or 96 hours. The compound concentrations were chosen on the basis of the observed RRE-Rev IC50 and cellular EC50 values. Total cellular RNA was isolated, treated with DNase I and reverse-transcribed as previously described[21],[22]. Unspliced, single-spliced and multiple-spliced HIV-1 RNA transcripts were quantified by qPCR relative to a control obtained from untreated cells, using the primers described by Mohammadi et al.[48], and GAPDH as an endogenous control.

Setting [7] is: 10 mM sodium phosphate pH 6.6, 0.1 mM EDTA, two-site model, read-out: Kd (IIBh), first-site Kd1.
Where [8] appears, read: 10 mM sodium phosphate pH 6.6, 0.1 mM EDTA, two-site model, read-out: Kd (IIBh), second-site Kd2 (in brackets).
Setting [9] is: 10-fold molar excess DNA duplex LTRd, 10 mM sodium phosphate pH 6.6, 0.1 mM EDTA, one-site fit, approximate, read-out: Kd (IIBh+LTRd).
The mark [10] stands for this setting: 10-fold molar excess LTRd, 10 mM HEPES pH 7.5, 200 mM KCl, 2 mM MgCl2, read-out: Kd (IIBh+LTRd), one-site or first-site Kd1, Table S2.
The mark [11] stands for this setting: 10-fold molar excess tRNALys, 10 mM sodium phosphate pH 6.6, 0.1 mM EDTA, one-site fit, approximate, read-out: Kd (IIBh+tRNA).
The mark [12] stands for this setting: higher ionic strength, 10 mM HEPES pH 7.5, 200 mM KCl, 2 mM MgCl2.
The mark [13] stands for this setting: higher ionic strength, 10 mM HEPES pH 7.5, 200 mM KCl, 2 mM MgCl2, read-out: Kd (IIBh), first-site Kd1, Table S2.
Where [14] appears, read: higher ionic strength, 10 mM HEPES pH 7.5, 200 mM KCl, 2 mM MgCl2, read-out: Kd (IIBh), second-site Kd2 (in brackets), Table S2.
Setting [15] is: 10-fold molar excess tRNALys, 10 mM HEPES pH 7.5, 200 mM KCl, 2 mM MgCl2, one-site fit, approximate, read-out: Kd (IIBh+tRNA), Table S2.

Structures are written as SMILES. Where two headings read alike, the source gives them in different places.

Usually EC50 stands for the midpoint of the concentration-response curve. With `COc1cc(CCN)c(-c2cc(C)c(-c3cc(CCN)c(OC)cc3CCN)cc2C)cc1CCN` [Compound 1a], the Kd is 0.5 µM in test [1]; 6.3 µM in test [4]; 0.98 µM in test [5] (setting [7]); 5.9 µM in test [5] (setting [8]); 2.4 µM in test [5] (setting [9]); 15 µM in test [5] (setting [10]). The Kd in test [5] (setting [11]) is 28 µM; in test [5] (setting [13]), 4.4 µM; in test [5] (setting [14]), 18 µM. In addition, the EC50 in test [2] is 7.2 µM. Besides, in test [3], the “diminished levels of early viral DNA sequences” value amounted to 25%. Also, the “IIB-DNA spec., Kd(IIBh)/Kd(IIBh+LTRd), Table S2” value in test [5] (setting [12]) is 0.29. The “IIB-DNA spec., Kd(IIBh)/Kd(IIBh+LTRd)” value in test [5] was determined as 0.41. Besides, the “IIB-tRNA spec., Kd(IIBh)/Kd(IIBh+tRNA)” value in test [5] was 0.035.
With `Cc1cc(-c2cc(CCN)ccc2CCN)c(C)cc1-c1cc(CCN)ccc1CCN` [Compound 1d], the EC50 in test [2] stood at 3.2 µM. Further, the “pattern of unspliced, single-spliced and multiple-spliced viral transcripts” value in test [6] is listed as “clearest patterns consistent with RRE-Rev inhibition”. Besides, the Kd in test [5] (setting [7]) stood at 0.87 µM; in test [5] (setting [8]), 3.5 µM; in test [5] (setting [9]), 2.2 µM; in test [5] (setting [10]), 3.7 µM; in test [5] (10-fold molar excess LTRd, 10 mM HEPES pH 7.5, 200 mM KCl, 2 mM MgCl2, read-out: Kd (IIBh+LTRd), second-site Kd2 (in brackets), Table S2), 54 µM; in test [5] (setting [15]), 42 µM. Also, the figures for the Kd in test [5] (setting [11]), in test [5] (setting [13]) and in test [5] (setting [14]) were 7.8 µM, 7.6 µM and 30 µM, respectively. Moreover, the “IIB-DNA spec., Kd(IIBh)/Kd(IIBh+LTRd), Table S2” value in test [5] (setting [12]) was 2.1. Further, the “IIB-tRNA spec., Kd(IIBh)/Kd(IIBh+tRNA), Table S2” value in test [5] (setting [12]) came out at 0.18. In addition, the “IIB-DNA spec., Kd(IIBh)/Kd(IIBh+LTRd)” value in test [5] worked out at 0.40. In test [5], the “IIB-tRNA spec., Kd(IIBh)/Kd(IIBh+tRNA)” value worked out at 0.11.
Regarding `Cc1cc(-c2cc(CCN)ccc2CCN)c(C)cc1-c1cccc(CCN)c1` [Compound 3c], in test [2], the EC50 turned out to be 3.32 µM. Moreover, the “diminished levels of early viral DNA sequences” value in test [3] was determined as 25%. Moreover, the Kd in test [5] (setting [7]) is 6.5 µM; in test [5] (setting [8]), 26 µM; in test [5] (setting [9]) it was 8.1 µM; in test [5] (setting [10]) it was above 50 µM; in test [5] (setting [15]), above 50 µM; in test [5] (setting [11]), 5.2 µM. Further, the Kd in test [5] (setting [13]) was above 50 µM. In addition, the “IIB-DNA spec., Kd(IIBh)/Kd(IIBh+LTRd)” value in test [5] turned out to be 0.80. Besides, the “IIB-tRNA spec., Kd(IIBh)/Kd(IIBh+tRNA)” value in test [5] was 1.3.
